Assay results: ChEMBL document CHEMBL4808252, “Identification of new [1,2,4]triazolo[4,3-a]quinoxalines as potent VEGFR-2 tyrosine kinase inhibitors: Design, synthesis, anticancer evaluation, and in silico studies” (Bioorg Med Chem, 2021)

Columns and labels:
MCF7 = assay: Antiproliferative activity against human MCF7 cells assessed as cell growth inhibition incubated for 4 hrs by MTT assay; conditions: MCF7, 4 h
HepG2 [1] = assay: Antiproliferative activity against human HepG2 cells assessed as cell growth inhibition incubated for 4 hrs by MTT assay; conditions: HepG2, 4 h
Hepatocyte = assay: Cytotoxicity against rat hepatocytes assessed as reduction in cell growth for 4 hrs by MTT assay
HepG2 [2] = assay: Cell cycle arrest in human HepG2 cells assessed as accumulation at sub G1 phase at 5.4 uM incubated for 24 hrs by DNA flow cytometric assay (reference value: 1.53 +/- 0.21%); format: functional
HepG2 [3] = assay: Cell cycle arrest in human HepG2 cells assessed as accumulation at G1 phase at 5.4 uM incubated for 24 hrs by DNA flow cytometric assay (reference value: 66.40 +/- 3.21%); format: functional
HepG2 [4] = assay: Cell cycle arrest in human HepG2 cells assessed as accumulation at S phase at 5.4 uM incubated for 24 hrs by DNA flow cytometric assay (reference value: 19.52 +/- 1.55%); format: functional
HepG2 [5] = assay: Cell cycle arrest in human HepG2 cells assessed as accumulation at G2/M phase at 5.4 uM incubated for 24 hrs by DNA flow cytometric assay (reference value: 12.53 +/- 1.48%); format: functional
HepG2 [6] = assay: Induction of apoptosis in human HepG2 cells assessed as viable cells at 5.4 uM incubated for 24 hrs by annexinV-FITC/propidium iodide staining based flow cytometry (reference value: 92.54 +/- 1.64 %); format: functional; conditions: read-out: Activity
HepG2 [7] = assay: Induction of apoptosis in human HepG2 cells assessed as early apoptotic cells at 5.4 uM incubated for 24 hrs by annexinV-FITC/propidium iodide staining based flow cytometry (reference value: 7.22 +/- 0.64 %); format: functional
HepG2 [8] = assay: Induction of apoptosis in human HepG2 cells assessed as late apoptotic cells at 5.4 uM incubated for 24 hrs by annexinV-FITC/propidium iodide staining based flow cytometry (reference value: 0.13 +/- 0.01%); format: functional
HepG2 [9] = assay: Induction of apoptosis in human HepG2 cells assessed as necrotic cells at 5.4 uM incubated for 24 hrs by annexinV-FITC/propidium iodide staining based flow cytometry (reference value: 0.07 +/- 0.01 %); format: functional

Row | Compound | IC50 (MCF7) [µM] | IC50 (HepG2 [1]) [µM] | other results
1 | O=C(Cn1c(=O)c2nncn2c2ccccc21)Nc1ccc(C(=O)Nc2ccc(Cl)cn2)cc1 | 71.4 | 47.6 | 
2 | O=C(CSc1nc2ccccc2n2cnnc12)Nc1ccc(C(=O)NCc2ccccc2)cc1 | 52.7 | 43.5 | 
3 | O=C(Cn1c(=O)c2nncn2c2ccccc21)Nc1ccc(C(=O)Nc2ccc([N+](=O)[O-])cc2)cc1 | 51.6 | 42.5 | 
4 | O=C(CSc1nc2ccccc2n2cnnc12)Nc1ccc(C(=O)Nc2ccc([N+](=O)[O-])cc2)cc1 | 61.3 | 42.7 | 
5 | O=C(CSc1nc2ccccc2n2cnnc12)Nc1ccc(C(=O)NNC(=O)c2ccc([N+](=O)[O-])cc2)cc1 | 72.7 | 52.4 | 
6 | O=C(CSc1nc2ccccc2n2cnnc12)Nc1ccc(C(=O)NNc2ccccc2)cc1 | 59.3 | 37.8 | 
7 | Cc1cccc(C)c1NC(=O)c1ccc(NC(=O)CSc2nc3ccccc3n3cnnc23)cc1 | 68.7 | 54.2 | 
8 | O=C(Cn1c(=O)c2nncn2c2ccccc21)Nc1ccc(C(=O)Nc2ccccc2)cc1 | 68.3 | 57.5 | 
9 | O=C(CSc1nc2ccccc2n2cnnc12)Nc1ccc(C(=O)NNC(=O)c2ccccc2)cc1 | 57.1 | 41.9 | 
10 | O=C(CSc1nc2ccccc2n2cnnc12)Nc1ccc(C(=O)NC2CCCCC2)cc1 | 69.2 | 64.8 | 
11 | O=C(CSc1nc2ccccc2n2cnnc12)Nc1ccc(C(=O)Nc2ccccn2)cc1 | 54.7 | 51.5 | 

The next molecules have a lower IC50 (HepG2 [1]) than those just listed; values first:

Row | IC50 (MCF7) [µM] | IC50 (HepG2 [1]) [µM] | Compound | other results
12 | 31.1 | 19.7 | O=C(Cn1c(=O)c2nncn2c2ccccc21)Nc1ccc(C(=O)NNC(=O)c2ccc([N+](=O)[O-])cc2)cc1 | 
13 | 38.2 | 31.8 | Cc1ccccc1NC(=O)c1ccc(NC(=O)CSc2nc3ccccc3n3cnnc23)cc1 | 
14 | 10.3 | 6.5 | Cc1cccc(NC(=O)c2ccc(NC(=O)Cn3c(=O)c4nncn4c4ccccc43)cc2)c1 | 
15 | 21.5 | 17.5 | Cc1cccc(C)c1NC(=O)c1ccc(NC(=O)Cn2c(=O)c3nncn3c3ccccc32)cc1 | 
16 | 41.2 | 23.8 | O=C(Cn1c(=O)c2nncn2c2ccccc21)Nc1ccc(C(=O)NC2CCCCC2)cc1 | 
17 | 12.2 | 8.3 | O=C(CSc1nc2ccccc2n2cnnc12)Nc1ccc(C(=O)Nc2ccc(Cl)cn2)cc1 | 
18 |  | 2.17 | CNC(=O)c1cc(Oc2ccc(NC(=O)Nc3ccc(Cl)c(C(F)(F)F)c3)cc2)ccn1 [SORAFENIB] | IC50 (Hepatocyte): 16.6 µM
19 | 46.7 | 23.6 | Cc1cccc(NC(=O)c2ccc(NC(=O)CSc3nc4ccccc4n4cnnc34)cc2)c1 | 
20 | 8.2 | 5.4 | O=C(CSc1nc2ccccc2n2cnnc12)Nc1ccc(C(=O)Nc2ccccc2)cc1 | IC50 (Hepatocyte): 31.3 µM; Activity (HepG2 [2]): 1.32%; Activity (HepG2 [3]): 42.55%; Activity (HepG2 [4]): 30.12%; Activity (HepG2 [5]): 25.99%; viability at 5.4 µM (HepG2 [6]): 69.4%; Activity (HepG2 [7]): 30.27%; Activity (HepG2 [8]): 0.22%; Activity (HepG2 [9]): 0.14%
21 | 23.7 | 15.4 | O=C(Cn1c(=O)c2nncn2c2ccccc21)Nc1ccc(C(=O)NNC(=O)c2ccccc2)cc1 | 
22 | 9.7 | 7.9 | O=C(Cn1c(=O)c2nncn2c2ccccc21)Nc1ccc(C(=O)NCc2ccccc2)cc1 | 
